One assay addresses T1, JNK3 (Homo sapiens, UniProt P53779).
T1 construct: purchased DiscoveRx
As to the kind of experiment: KinomeScan. The class given is binding. The settings on record: read-out: % Control.

The target of a further assay is T2, ABL2 (Homo sapiens, UniProt P42684).
T2 construct: purchased DiscoveRx
In words: KinomeScan. Type of assay: binding. The conditions noted are these: read-out: % Control.

The next assay concerns the target T3, EPHA1 (Homo sapiens, UniProt P21709).
T3 construct: purchased DiscoveRx (Fremont, CA)
In words: KinomeScan. Type of assay: binding. The conditions noted are these: read-out: % Control.

The next assay addresses T4, MYO3B (Homo sapiens, UniProt Q8WXR4).
T4 construct: purchased DiscoveRx
As to the kind of experiment: KinomeScan. Type of assay: binding. The settings on record: read-out: % Control.

In a further assay the target is T5, RIPK2 (Homo sapiens, UniProt O43353).
T5 construct: purchased DiscoveRx (Fremont, CA)
As to the kind of experiment: KinomeScan. Type of assay: binding. The settings on record: read-out: % Control.

For the next assay, the target named is T6, IGF1R (Homo sapiens, UniProt P08069).
T6 construct: purchased DiscoveRx (Fremont, CA)
As to the kind of experiment: KinomeScan. Type of assay: binding. The conditions noted are these: read-out: % Control.

The target of the next assay is T7, YSK4 (Homo sapiens, UniProt Q56UN5).
T7 construct: purchased DiscoveRx
In words: KinomeScan. The class given is binding. The settings on record: read-out: % Control.

Another assay concerns the target T8, AMPK-alpha1 (Homo sapiens, UniProt Q13131).
T8 construct: purchased DiscoveRx (Fremont, CA)
As to the kind of experiment: KinomeScan. Type of assay: binding. The settings on record: read-out: % Control.

The target of a further assay is T9, MET(Y1235D) (Homo sapiens, UniProt P08581, Y1235D).
T9 construct: purchased DiscoveRx
In words: KinomeScan. The conditions noted are these: read-out: % Control. Type of assay: binding.

The target in the next assay is T10, PIM2 (Homo sapiens, UniProt Q9P1W9).
T10 construct: purchased DiscoveRx (Fremont, CA)
In words: KinomeScan. Type of assay: binding. The conditions noted are these: read-out: % Control.

Another assay has as its target T11, VEGFR2 (Homo sapiens, UniProt P35968).
T11 construct: purchased DiscoveRx
In words: KinomeScan. The settings on record: read-out: % Control. Type of assay: binding.

Another assay concerns the target T12, MAPKAPK2 (Homo sapiens, UniProt P49137).
T12 construct: purchased DiscoveRx (Fremont, CA)
In words: KinomeScan. The class given is binding. The conditions noted are these: read-out: % Control.

A further assay has as its target T13, PLK3 (Homo sapiens, UniProt Q9H4B4).
T13 construct: purchased DiscoveRx (Fremont, CA)
In words: KinomeScan. The class given is binding. The settings on record: read-out: % Control.

The next assay has as its target T14, MAP4K4 (Homo sapiens, UniProt O95819).
T14 construct: purchased DiscoveRx (Fremont, CA)
As to the kind of experiment: KinomeScan. The class given is binding. The conditions noted are these: read-out: % Control.

A further assay concerns the target T15, S6K1 (Homo sapiens, UniProt P23443).
T15 construct: purchased DiscoveRx (Fremont, CA)
In words: KinomeScan. Type of assay: binding. The conditions noted are these: read-out: % Control.

For the next assay, the target named is T16, CDC2L1 (Homo sapiens, UniProt P21127).
T16 construct: purchased DiscoveRx (KinomeScan service)
In words: KinomeScan. The class given is binding. The conditions noted are these: read-out: % Control.

The next assay deals with T17, MAP3K1 (Homo sapiens, UniProt Q13233).
T17 construct: purchased DiscoveRx
In words: KinomeScan. The conditions noted are these: read-out: % Control. The class given is binding.

A further assay deals with T18, INK2 (Homo sapiens, UniProt P45984).
T18 construct: purchased DiscoveRx
In words: KinomeScan. The settings on record: read-out: % Control. Type of assay: binding.

The target of a further assay is T19, MARK1 (Homo sapiens, UniProt Q9P0L2).
T19 construct: purchased DiscoveRx (Fremont, CA)
In words: KinomeScan. The conditions noted are these: read-out: % Control. Type of assay: binding.

The subject of another assay is Trypsin activated PARS. As to the kind of experiment: GPCR Profiler. Type of assay: cell-based.
For a further assay, the target named is T20, PRKX (Homo sapiens, UniProt P51817).
T20 construct: purchased DiscoveRx (Fremont, CA)
In words: KinomeScan. Type of assay: binding. The settings on record: read-out: % Control.

A further assay concerns the target Lpa1 (Homo sapiens, UniProt Q92633). As to the kind of experiment: GPCR Profiler. The class given is cell-based.
Another assay has as its target T21, PKN1 (Homo sapiens, UniProt Q16512).
T21 construct: purchased DiscoveRx (Fremont, CA)
In words: KinomeScan. Type of assay: binding. The settings on record: read-out: % Control.

A further assay addresses T22, RAF1 (Homo sapiens, UniProt P04049).
T22 construct: purchased DiscoveRx (Fremont, CA)
In words: KinomeScan. The class given is binding. The settings on record: read-out: % Control.

In another assay the target is T23, NDR2 (Homo sapiens, UniProt Q9Y2H1).
T23 construct: purchased DiscoveRx
In words: KinomeScan. The class given is binding. The settings on record: read-out: % Control.

The target of a further assay is T24, 5-HT1A (Homo sapiens, UniProt P08908).
T24 construct: host or cells: Chem-1 cells with promiscuous Gα15
In words: GPCR Profiler. Type of assay: cell-based.

For a further assay, the target named is T25, PAK6 (Homo sapiens, UniProt Q9NQU5).
T25 construct: purchased DiscoveRx
In words: KinomeScan. Type of assay: binding. The settings on record: read-out: % Control.

Another assay concerns the target T26, PDGFRB (Homo sapiens, UniProt P09619).
T26 construct: purchased DiscoveRx (Fremont, CA)
As to the kind of experiment: KinomeScan. The class given is binding. The settings on record: read-out: % Control.

Another assay addresses T27, FER (Homo sapiens, UniProt P16591).
T27 construct: purchased DiscoveRx (Fremont, CA)
In words: KinomeScan. The class given is binding. The conditions noted are these: read-out: % Control.

Assay [1] concerns the target T28, EGFR(L747-E749del, A750P) (Homo sapiens, UniProt P00533, A750P/DEL747-749).
T28 construct: purchased DiscoveRx (Fremont, CA), KinomeScan service
As to the kind of experiment: KinomeScan. The class given is binding. The settings on record: read-out: % Control.

A further assay has as its target CTK (Homo sapiens, UniProt P42679). As to the kind of experiment: KinomeScan. Type of assay: binding. The conditions noted are these: read-out: % Control.
The next assay concerns the target T29, CCR5 (Macaca mulatta, UniProt P61813).
T29 construct: host or cells: Chem-1 cells with Gα15
In words: GPCR Profiler. Type of assay: cell-based.

A further assay has as its target GPR68 (Homo sapiens, UniProt Q15743). In words: GPCR Profiler. The class given is cell-based. Set-up: host or cells: Chem-1 cells (Chem1-OGR1).
In another assay the target is T30, KIT(D816H) (Homo sapiens, UniProt P10721, D816H).
T30 construct: purchased DiscoveRx
In words: KinomeScan. Type of assay: binding. The settings on record: read-out: % Control.

The next assay has as its system endothelial cell (EC). In words: Acidification-induced endothelial cell dysfunction. Type of assay: cell-based. The procedure: FIG. 34A through FIG. 34C: GPR68 plays a central role in acidification-induced endothelial cell (EC) dysfunction in vitro, and OGM2 abrogates EC dysfunction. […] These effects were abolished by OGM2 (OGM) at 3 uM and augmented by GPR68 positive allosteric modulator Ogerin (Og) at 2 uM. *P<0.05; Mann-Whitney test, n=5. FIG. 34C: Medium acidification reduced transendothelial resistance (TER), indicative of disruption of EC barrier function.

T24 sequence (P08908 whole entry): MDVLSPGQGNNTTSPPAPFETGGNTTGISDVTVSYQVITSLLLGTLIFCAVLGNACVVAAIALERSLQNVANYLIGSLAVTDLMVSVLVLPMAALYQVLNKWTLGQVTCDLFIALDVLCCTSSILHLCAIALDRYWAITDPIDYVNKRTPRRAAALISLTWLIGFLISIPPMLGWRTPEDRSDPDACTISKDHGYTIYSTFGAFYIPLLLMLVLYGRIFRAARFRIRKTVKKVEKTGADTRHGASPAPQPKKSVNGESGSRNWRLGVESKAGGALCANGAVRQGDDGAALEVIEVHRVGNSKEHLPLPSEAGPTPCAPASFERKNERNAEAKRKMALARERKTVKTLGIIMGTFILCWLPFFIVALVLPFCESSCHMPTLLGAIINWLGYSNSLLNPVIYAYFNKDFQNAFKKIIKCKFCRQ
Chain of Lpa1 (Q92633 whole entry, species assumed): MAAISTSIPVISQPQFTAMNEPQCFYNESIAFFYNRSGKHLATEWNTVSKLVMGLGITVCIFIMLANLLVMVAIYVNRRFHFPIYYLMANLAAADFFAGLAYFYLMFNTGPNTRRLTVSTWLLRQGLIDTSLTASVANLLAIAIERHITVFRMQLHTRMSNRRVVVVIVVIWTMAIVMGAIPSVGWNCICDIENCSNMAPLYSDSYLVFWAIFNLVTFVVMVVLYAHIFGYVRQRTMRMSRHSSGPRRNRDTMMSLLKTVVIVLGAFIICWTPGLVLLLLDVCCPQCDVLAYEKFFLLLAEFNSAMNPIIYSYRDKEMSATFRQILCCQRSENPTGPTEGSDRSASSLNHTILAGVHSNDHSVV
Chain of GPR68 (Q15743 whole entry): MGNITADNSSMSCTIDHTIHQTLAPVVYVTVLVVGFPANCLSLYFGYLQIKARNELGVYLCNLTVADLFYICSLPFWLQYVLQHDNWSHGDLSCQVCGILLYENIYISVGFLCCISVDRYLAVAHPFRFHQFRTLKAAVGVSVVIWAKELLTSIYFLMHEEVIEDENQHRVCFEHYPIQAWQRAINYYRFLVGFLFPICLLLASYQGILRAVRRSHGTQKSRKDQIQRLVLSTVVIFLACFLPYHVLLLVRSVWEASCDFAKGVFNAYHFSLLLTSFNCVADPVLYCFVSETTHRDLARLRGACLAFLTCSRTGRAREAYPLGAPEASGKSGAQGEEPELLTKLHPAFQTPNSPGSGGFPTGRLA
T18 sequence (P45984 whole entry): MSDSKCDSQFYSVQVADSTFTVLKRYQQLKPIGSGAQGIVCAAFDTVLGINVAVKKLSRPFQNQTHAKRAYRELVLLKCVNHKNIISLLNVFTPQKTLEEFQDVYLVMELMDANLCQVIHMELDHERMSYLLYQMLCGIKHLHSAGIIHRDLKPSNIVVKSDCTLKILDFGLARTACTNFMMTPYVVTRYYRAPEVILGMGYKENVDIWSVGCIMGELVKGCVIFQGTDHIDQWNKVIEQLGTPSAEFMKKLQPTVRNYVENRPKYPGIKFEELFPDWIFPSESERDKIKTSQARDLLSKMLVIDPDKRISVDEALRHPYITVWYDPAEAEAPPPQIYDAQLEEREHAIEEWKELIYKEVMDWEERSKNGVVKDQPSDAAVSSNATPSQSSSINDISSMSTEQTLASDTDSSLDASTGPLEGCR
T1 sequence (P53779 whole entry): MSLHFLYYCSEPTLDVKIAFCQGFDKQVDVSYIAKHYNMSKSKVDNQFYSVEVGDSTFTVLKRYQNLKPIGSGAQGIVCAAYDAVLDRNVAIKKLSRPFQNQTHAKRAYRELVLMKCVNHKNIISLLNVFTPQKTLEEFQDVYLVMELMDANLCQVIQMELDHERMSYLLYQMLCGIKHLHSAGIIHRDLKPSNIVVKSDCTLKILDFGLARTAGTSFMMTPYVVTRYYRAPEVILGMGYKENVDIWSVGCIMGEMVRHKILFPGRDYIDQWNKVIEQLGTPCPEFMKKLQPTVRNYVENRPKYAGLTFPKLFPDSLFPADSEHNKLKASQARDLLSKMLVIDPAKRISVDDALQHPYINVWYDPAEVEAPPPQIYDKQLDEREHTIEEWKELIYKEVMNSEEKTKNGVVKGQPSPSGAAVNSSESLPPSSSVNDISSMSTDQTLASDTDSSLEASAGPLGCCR
T22 sequence (P04049 whole entry): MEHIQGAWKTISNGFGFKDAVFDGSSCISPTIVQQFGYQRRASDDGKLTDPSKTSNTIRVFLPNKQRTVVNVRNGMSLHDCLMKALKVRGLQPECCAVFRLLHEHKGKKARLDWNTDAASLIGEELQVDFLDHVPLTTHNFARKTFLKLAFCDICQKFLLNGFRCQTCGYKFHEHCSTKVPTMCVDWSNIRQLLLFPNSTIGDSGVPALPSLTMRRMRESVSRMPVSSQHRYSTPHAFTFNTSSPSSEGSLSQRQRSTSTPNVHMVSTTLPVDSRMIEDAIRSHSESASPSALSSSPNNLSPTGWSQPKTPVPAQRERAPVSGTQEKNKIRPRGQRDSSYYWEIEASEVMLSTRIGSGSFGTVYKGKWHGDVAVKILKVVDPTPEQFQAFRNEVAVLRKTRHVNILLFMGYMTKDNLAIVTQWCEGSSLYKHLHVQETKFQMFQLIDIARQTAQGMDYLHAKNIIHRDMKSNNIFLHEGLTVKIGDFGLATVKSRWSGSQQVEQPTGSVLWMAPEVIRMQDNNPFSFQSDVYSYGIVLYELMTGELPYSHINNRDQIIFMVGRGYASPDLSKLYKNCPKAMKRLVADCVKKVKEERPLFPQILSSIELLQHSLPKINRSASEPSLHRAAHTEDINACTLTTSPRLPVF
T28 sequence (P00533 with tags, fused parts or gaps DEL747-749/A750P): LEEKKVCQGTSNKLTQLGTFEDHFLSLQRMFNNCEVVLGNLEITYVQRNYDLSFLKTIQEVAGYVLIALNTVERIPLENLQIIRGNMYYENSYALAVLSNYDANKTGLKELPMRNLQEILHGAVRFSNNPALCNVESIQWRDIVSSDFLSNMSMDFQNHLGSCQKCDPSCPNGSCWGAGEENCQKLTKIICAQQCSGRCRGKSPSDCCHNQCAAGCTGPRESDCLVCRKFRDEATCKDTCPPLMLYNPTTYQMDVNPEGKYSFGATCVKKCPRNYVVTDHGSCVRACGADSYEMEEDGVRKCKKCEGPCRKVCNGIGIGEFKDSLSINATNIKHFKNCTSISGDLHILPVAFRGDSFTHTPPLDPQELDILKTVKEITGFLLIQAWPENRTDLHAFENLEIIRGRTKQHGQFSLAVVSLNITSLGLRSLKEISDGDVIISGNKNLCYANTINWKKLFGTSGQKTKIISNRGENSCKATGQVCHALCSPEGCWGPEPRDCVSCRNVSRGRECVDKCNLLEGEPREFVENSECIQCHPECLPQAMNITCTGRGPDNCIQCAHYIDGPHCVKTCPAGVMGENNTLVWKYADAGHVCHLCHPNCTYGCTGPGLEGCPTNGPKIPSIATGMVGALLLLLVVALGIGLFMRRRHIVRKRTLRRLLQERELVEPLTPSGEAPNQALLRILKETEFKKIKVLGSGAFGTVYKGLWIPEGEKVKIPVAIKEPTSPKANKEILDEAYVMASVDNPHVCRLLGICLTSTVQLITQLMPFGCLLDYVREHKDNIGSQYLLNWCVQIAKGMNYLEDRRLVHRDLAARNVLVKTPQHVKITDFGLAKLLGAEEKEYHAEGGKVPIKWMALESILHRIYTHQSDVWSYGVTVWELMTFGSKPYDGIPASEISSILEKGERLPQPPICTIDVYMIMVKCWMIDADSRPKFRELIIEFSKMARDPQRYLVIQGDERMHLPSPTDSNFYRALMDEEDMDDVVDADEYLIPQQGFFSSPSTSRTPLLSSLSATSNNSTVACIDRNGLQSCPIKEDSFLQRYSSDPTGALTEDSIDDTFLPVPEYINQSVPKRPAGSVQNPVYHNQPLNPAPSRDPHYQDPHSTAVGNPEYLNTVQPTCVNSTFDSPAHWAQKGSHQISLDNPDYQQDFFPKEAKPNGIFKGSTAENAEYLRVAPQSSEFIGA
T19 sequence (Q9P0L2 whole entry): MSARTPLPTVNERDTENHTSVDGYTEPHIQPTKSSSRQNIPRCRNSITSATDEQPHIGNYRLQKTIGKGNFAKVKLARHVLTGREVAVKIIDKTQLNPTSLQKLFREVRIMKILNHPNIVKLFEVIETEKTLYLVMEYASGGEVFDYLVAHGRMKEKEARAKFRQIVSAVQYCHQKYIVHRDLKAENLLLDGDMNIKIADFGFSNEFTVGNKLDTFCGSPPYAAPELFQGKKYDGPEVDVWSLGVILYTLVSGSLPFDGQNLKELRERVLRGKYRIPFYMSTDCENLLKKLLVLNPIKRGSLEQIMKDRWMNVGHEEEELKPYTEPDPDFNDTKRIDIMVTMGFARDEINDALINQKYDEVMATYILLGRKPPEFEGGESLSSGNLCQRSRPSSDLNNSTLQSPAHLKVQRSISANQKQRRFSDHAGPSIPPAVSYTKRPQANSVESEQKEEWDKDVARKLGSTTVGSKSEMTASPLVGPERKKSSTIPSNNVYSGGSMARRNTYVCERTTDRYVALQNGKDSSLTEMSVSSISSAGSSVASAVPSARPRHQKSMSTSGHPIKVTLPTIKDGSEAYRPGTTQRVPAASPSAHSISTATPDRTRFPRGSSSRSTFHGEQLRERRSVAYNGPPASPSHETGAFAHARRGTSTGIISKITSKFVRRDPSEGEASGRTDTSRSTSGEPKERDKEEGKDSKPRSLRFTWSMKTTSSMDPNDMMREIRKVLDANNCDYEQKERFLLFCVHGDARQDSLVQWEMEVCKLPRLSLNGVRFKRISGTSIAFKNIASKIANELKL

For the molecule `CCc1ccc2c(c1)C1(NN=C(c3cccc4ccccc34)S1)C(=O)N2` (centres unmarked) [OGM1, 5-ethyl-5′-naphthalen-1-ylspiro[1H-indole-3,2′-3H-1,3,4-thiadiazole]-2-one], the remaining binding at 10 µM worked out at 82% on JNK3; 100% on ABL2; 92% at EPHA1; 100% on MYO3B; 100% on RIPK2; 84% on IGF1R. Also, the remaining binding at 10 µM stood at 100% at YSK4; 100% on AMPK-alpha1; 100% at MET(Y1235D); 84% at PIM2; 100% at VEGFR2; 100% on MAPKAPK2. Further, the remaining binding at 10 µM at PLK3 was 100%; on MAP4K4, 100%; at S6K1 it was 93%; on CDC2L1 it was 92%; on MAP3K1, 72%; at INK2, 83%. The remaining binding at 10 µM was found to be 100% at MARK1; 98% on PRKX; 100% at PKN1; 100% at RAF1; 82% at NDR2; 89% on PAK6. Moreover, the remaining binding at 10 µM came out at 72% at PDGFRB; 100% on FER; 91% in assay [1]; 100% at CTK; 97% at KIT(D816H). The Antagonism in the assay with Trypsin activated PARS (10 uM) is given as 18.2; at Lpa1 (10 uM), 89.5; on 5-HT1A (10 uM), −7.5; at CCR5 (10 uM) it was 15.8; on GPR68 (10 uM) it was 70.8. The Agonism in the assay on Trypsin activated PARS (12.5 uM) is 0; at Lpa1 (12.5 uM) it was 0.5; on 5-HT1A (12.5 uM), −0.8; on CCR5 (12.5 uM) it was 2.5; on GPR68 (12.5 uM), −7.6.

On to `CCc1ccc2c(c1)C1(NN=C(c3ccccc3)S1)C(=O)N2` (centres unmarked) [OGM2], for which the “TER decline caused by low pH (6.5)” value in the assay on endothelial cell (EC) (GPR4i 5 uM) is “abolished TER decline”. Also, the “acidic media (pH 6.5)-induced TNFα, VCAM1 and ICAM1 expression” value with endothelial cell (EC) (OGM2 3 uM, Ogerin 2 uM) is recorded as “abolished”.

The record behind these values is patent publication US20240327364A1, “THERAPEUTIC TARGETING OF GPR68 TO INDUCE FERROPTOSIS” (University Of Maryland, Baltimore, priority 2023, published 2024).
